Laboratory results as given in paper PMC4060991, “The Human Orphan Nuclear Receptor Tailless (TLX, NR2E1) Is Druggable” (PLoS ONE, 2014).
Structures can show the parent of a compound that is named as a salt.

Biological target: TLX LBD (Homo sapiens, UniProt Q9Y466)
Test: Differential scanning fluorimetry (DSF) on purified TLX LBD;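 note: thermal unfolding followed by Sypro-Orange fluorescence (excitation 465 nm, emission 610 nm) in 384-well plates, Tm taken from the first derivative of the denaturation curve, duplicate samples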
Type: binding
Design: cDNA fragments encoding human TLX LBD (a.a. 187–385) were cloned; His6 followed by TEV protease cleavage site (N); made in house; host or cells: E. coli BL21 (DE3) star
Conditions: compound 500 µM

Chain of TLX LBD (Q9Y466 187-385): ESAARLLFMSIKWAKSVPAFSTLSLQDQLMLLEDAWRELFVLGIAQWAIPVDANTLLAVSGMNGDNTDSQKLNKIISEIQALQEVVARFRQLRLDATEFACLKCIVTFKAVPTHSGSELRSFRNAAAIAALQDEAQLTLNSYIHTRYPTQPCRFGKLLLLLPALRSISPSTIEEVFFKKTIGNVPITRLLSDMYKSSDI

SMILES | hit in DSF screen (able to bind TLX LBD, Tm shift 0.9°C or more), Table S1
O=NN(CCCl)C(=O)NCc1ccc[n+]([O-])c1 [1-(2-chloroethyl)-1-nitroso-3-[(1-oxidopyridin-1-ium-3-yl)methyl]urea] | Hits from DSF
Cc1cc(N)c2ccccc2[n+]1CCCCCCCCCC[n+]1c(C)cc(N)c2ccccc21.[Cl-].[Cl-] [1-[10-(4-amino-2-methylquinolin-1-ium-1-yl)decyl]-2-methylquinolin-1-ium-4-amine chloride] | Hits from DSF
Cc1ccc(S(=O)(=O)c2ccc([N+](=O)[O-])o2)cc1 [2-(4-methylphenyl)sulfonyl-5-nitrofuran] | Hits from DSF
O=[N+]([O-])c1cc(C(F)(F)F)cc([N+](=O)[O-])c1CCl [2-(chloromethyl)-1,3-dinitro-5-(trifluoromethyl)benzene] | Hits from DSF
COc1cc2c(cc1O)CC[C@@H]1[C@@H]2CC[C@]2(C)[C@@H](O)CC[C@@H]12 [2-Methoxyestradiol] | Hits from DSF
COC1CC(CC2CCC(C)C(C(C)C(=O)O)O2)OC2(OC(C)(C3CCC(C)(C4OC(C5OC(O)(CO)C(C)CC5C)CC4C)O3)CC2C)C1C (centres unmarked) [2-[6-[[2-[5-[5-[6-hydroxy-6-(hydroxymethyl)-3,5-dimethyloxan-2-yl]-3-methyloxolan-2-yl]-5-methyloxolan-2-yl]-9-methoxy-2,4,10-trimethyl-1,6-dioxaspiro[4.5]decan-7-yl]methyl]-3-methyloxan-2-yl]propanoic acid] | Hits from DSF
O=C1c2ccccc2C(=O)C1C(c1ccc([N+](=O)[O-])cc1)C1C(=O)c2ccccc2C1=O [2-[(1,3-dioxoinden-2-yl)-(4-nitrophenyl)methyl]indene-1,3-dione] | Hits from DSF
CCCCCCCCCCCCC(O)C(=O)O (centres unmarked) [2-hydroxytetradecanoic acid] | Hits from DSF
CCCCCC(CN1CCOCC1)C(=O)C=Cc1ccccc1 (centres unmarked) [4-(morpholin-4-ylmethyl)-1-phenylnon-1-en-3-one] | Hits from DSF
O=C(O)c1ccc(NC(c2ccccc2)c2ccc3cccnc3c2O)cc1 (centres unmarked) [4-[[(8-hydroxyquinolin-7-yl)-phenylmethyl]amino]benzoic acid] | Hits from DSF
N#Cc1c(O)c2c(-c3ccc(-c4ccccc4O)cc3)csc2[nH]c1=O [6,7-Dihydro-4-hydroxy-3-(2'-hydroxy[1,1'-biphenyl]-4-yl)-6-oxo-thieno[2,3-b]pyridine-5-carbonitrile] | Hits from DSF
CC(C)C1(Cl)CCC2C3(C)CCCC(C)(C(=O)O)C3CC(Cl)C2(Cl)C1Cl (centres unmarked) [7,8,8a,9-tetrachloro-1,4a-dimethyl-7-propan-2-yl-2,3,4,4b,5,6,8,9,10,10a-decahydrophenanthrene-1-carboxylic acid] | Hits from DSF
N#C/C(=C\c1ccc2ccccc2c1)C(=O)c1ccccc1 [(E)-2-(benzoyl)-3-naphthalen-2-ylprop-2-enenitrile] | Hits from DSF
CCN1CCN(C(=O)Cc2ccc(Nc3ncc(F)c(Nc4ccc(C(=O)Nc5ccccc5Cl)cc4)n3)cc2)CC1 [Aurora A Inhibitor I] | Hits from DSF
N#CCNC(=O)c1ccc(-c2ccnc(Nc3ccc(N4CCOCC4)cc3)n2)cc1 [CYT387] | Hits from DSF
CCP(CC)CC.[Au+].[Cl-] [Chlorogold; Triethylphosphane] | Hits from DSF
C[C@@H](NCCCc1cccc(C(F)(F)F)c1)c1cccc2ccccc12 [Cinacalcet hydrochloride, reference compound] | Hits from DSF
Clc1ccccc1C(c1ccccc1)(c1ccccc1)n1ccnc1 [Clotrimazole, reference compound] | Hits from DSF
CC(C)(C)OC(=O)N[C@H]1CCCCC/C=C\[C@@H]2C[C@@]2(C(=O)NS(=O)(=O)C2CC2)NC(=O)[C@@H]2C[C@@H](OC(=O)N3Cc4cccc(F)c4C3)CN2C1=O [Danoprevir] | Hits from DSF
CO[C@H]1C[C@@H]2CC[C@@H](C)[C@@](O)(O2)C(=O)C(=O)N2CCCC[C@H]2C(=O)O[C@H]([C@H](C)C[C@@H]2CC[C@@H](OP(C)(C)=O)[C@H](OC)C2)CC(=O)[C@H](C)/C=C(\C)[C@@H](O)[C@@H](OC)C(=O)[C@H](C)C[C@H](C)/C=C/C=C/C=C/1C [Deforolimus] | Hits from DSF
[Cl][Cd][Cl] [Dichlorocadmium] | Hits from DSF
CO[C@H]1C[C@@H]2CC[C@@H](C)[C@@](O)(O2)C(=O)C(=O)N2CCCC[C@H]2C(=O)O[C@H]([C@H](C)C[C@@H]2CC[C@@H](OCCO)[C@H](OC)C2)CC(=O)[C@H](C)/C=C(\C)[C@@H](O)[C@@H](OC)C(=O)[C@H](C)C[C@H](C)/C=C/C=C/C=C/1C [Everolimus (RAD001), Everolimus, reference compound] | Hits from DSF

SMILES | hit in DSF screen (able to bind TLX LBD, Tm shift 0.9°C or more), Table S1
CC(C)n1c(/C=C/C(O)CC(O)CC(=O)O)c(-c2ccc(F)cc2)c2ccccc21 (centres unmarked) [Fluvastatin Sodium, reference compound] | Hits from DSF
CC(=O)N1CCN(c2ccc(OCC3COC(Cn4ccnc4)(c4ccc(Cl)cc4Cl)O3)cc2)CC1 (centres unmarked) [Ketoconazole, reference compound] | Hits from DSF
CCOC(=O)N1CCC(=C2c3ccc(Cl)cc3CCc3cccnc32)CC1 [Loratadine, reference compound] | Hits from DSF
COc1cc(Nc2ncc3c(n2)-c2ccc(Cl)cc2C(c2c(F)cccc2OC)=NC3)ccc1C(=O)O [MLN8237] | Hits from DSF
Cc1ccc(NC(=O)c2ccc(CN3CCN(C)CC3)cc2)cc1Nc1nc(-c2cccnc2)cs1 [Masitinib] | Hits from DSF
CC(C)c1cnn2c(NCc3ccccc3)cc(NCCCCCCN)nc12 [N5-(6-Aminohexyl)-3-isopropyl-N7-benzylpyrazolo[1,5-a]pyrimidine-5,7-diamine] | Hits from DSF
Nc1ncnc2c1c(-c1cccc(OCc3ccccc3)c1)cn2C1CC(CN2CCCC2)C1 (centres unmarked) [NVP-ADW742] | Hits from DSF
COc1cccc2cc(-c3nc([C@H]4CC[C@H](C(=O)O)CC4)n4ncnc(N)c34)[nH]c12 [OSI-027] | Hits from DSF
O=C(CCc1ccc(O)cc1)c1c(O)cc(O)cc1O [Phloretin] | Hits from DSF
CC(=O)[C@H]1CC[C@H]2[C@@H]3CCC4=CC(=O)CC[C@]4(C)[C@H]3CC[C@]12C [Progesterone, reference compound] | Hits from DSF
O=C(c1ccc(OCCN2CCCCC2)cc1)c1c(-c2ccc(O)cc2)sc2cc(O)ccc12 [Raloxifene, reference compound] | Hits from DSF
CC[C@H](CO)Nc1nc(NCc2ccccc2)c2ncn(C(C)C)c2n1 [Roscovitine (CYC202), Roscovitine] | Hits from DSF
Cn1cc(-c2ccc3nnc(Sc4ccc5ncccc5c4)n3n2)cn1 [SGX-523] | Hits from DSF
Cc1cc(C(C)Nc2ccccc2)c2nc(N3CCOCC3)cc(=O)n2c1 (centres unmarked) [TGX-221] | Hits from DSF
C[C@]12CC[C@H]3[C@@H](CCC4=CC(=O)CC[C@@]43C)[C@@H]1CC[C@@H]2OC(=O)CCC1CCCC1 [Testosterone cypionate, reference compound] | Hits from DSF
CCC[CH2][Pb]([Cl])([CH2]CCC)[CH2]CCC [Tributyl(chloro)plumbane] | Hits from DSF
CCC1=C[C@@H]2CN(C1)Cc1c([nH]c3ccccc13)[C@@](C(=O)OC)(c1cc3c(cc1OC)N(C)[C@H]1[C@@](O)(C(=O)OC)[C@H](OC(C)=O)[C@]4(CC)C=CCN5CC[C@]31[C@@H]54)C2 [Vinorelbine, reference compound] | Hits from DSF
FC(F)c1nc2ccccc2n1-c1nc(N2CCOCC2)nc(N2CCOCC2)n1 [ZSTK474] | Hits from DSF
CC(=O)OC(C)(C)/C=C/C(=O)[C@](C)(O)[C@H]1[C@H](O)C[C@@]2(C)[C@@H]3CC=C4[C@@H](C[C@H](O)C(=O)C4(C)C)[C@]3(C)C(=O)C[C@]12C [[(E,6R)-6-[(2S,8S,9R,10R,13R,14S,16R,17R)-2,16-dihydroxy-4,4,9,13,14-pentamethyl-3,11-dioxo-2,7,8,10,12,15,16,17-octahydro-1H-cyclopenta[a]phenanthren-17-yl]-6-hydroxy-2-methyl-5-oxohept-3-en-2-yl] acetate] | Hits from DSF
CNC(=O)ON(C(C)=O)C(=O)NC [[acetyl(methylcarbamoyl)amino] N-methylcarbamate] | Hits from DSF
CC(=O)[O][Pb]([O]C(C)=O)([c]1ccccc1)[c]1ccccc1 [[acetyloxy-di(phenyl)plumbyl] acetate] | Hits from DSF
CC(=O)[O][Hg][c]1c(C)c(C)c(C)c(C)c1C [acetyloxy-(2,3,4,5,6-pentamethylphenyl)mercury] | Hits from DSF
